The source of these data is patent publication EP0062319A1, “3-Methyl-1-(2-(3-naphthyloxy)-ethyl)-2-pyrazolin-5-one for the treatment of the metastasis and growth of tumour cells” (BAYER AG, priority 1981, dated 1982).

Structures are written as SMILES.

For experiment [1], the system named is Lewis-Lungenkarzinom-Zellen. As to the kind of experiment: DNA synthesis by 3H-thymidine uptake in Lewis lung carcinoma cells in vitro. The format is cell-based, Mäuse. Particulars: 0,1, 1,0, 10 and 25 µg/ml, 4 h and 18 h, Fig. 1, relative to control = 100 %. The text has this: Die antineoplastische Wirksamkeit wurde in vitro durch Messung der DNS-Synthese sowohl von B-16a- als auch von Lewis-Lungenkarzinom-Zellen durch eine Methode gemessen, der die Thymidin-Aufnahme zugrundeliegt. Zellen, die in Vorbereitung der Zellteilung DNS synthetisieren, sind durch ihre Fähigkeit gekennzeichnet, Thymidin aufzunehmen. Demnach ist die Zell-Proliferation mit der DNS-Synthese verbunden. Wenn die Menge der durch die Tumorzellen synthetisierten DNS vermindert wird, so ist das ein Anzeichen dafür, daß die Zellteilung und damit das Tumorwachstum gehemmt worden ist.
B-16a- und Lewis-Lungenkarzinom-Zellen wurden wie vor- stehend beschrieben erhalten. Die dispergierten Zellen wurden in sterilen 25 ml-Erlenmeyer-Kolben aus Kunststoff auf eine Konzentration von 1 x 10^5 Zellen/ml in MEM verdünnt. Tritium-markiertes Thymidin (^3H) mit einer spezifischen Aktivität von […] (50-80 Ci/mmol) wurde mit […] (2 µCi/ml) zu jedem ml der Zellsuspension hinzugefügt.
Zu einer Reihe von Kolben, die die B-16 - und Lewis-Lungenkarzinom-Zellen enthielten, wurde die Pyrazolon-Verbindung in Mengen von 0,1 , 1,0 , 10 und 25 µg/ml des Gesamtvolumens hinzugefügt. […]

The subject of the next experiment is Lewis-Lungen-Karzinom. As to the kind of experiment: Tumour incidence and final tumour weight of subcutaneous Lewis lung carcinoma in mice. Particulars: killed day 22; for Gewicht: final tumour weight. The format is in vivo, C57BL/6J Mäuse. From the text:
Die antineoplastische Wirksamkeit wurde außerdem durch direkte Messung des Wachstums der Tumorzellen in vitro in Gewebekulturen bestimmt. Diese Methode bedient sich des "Plating" oder Aufimpfens einer bekannten Anzahl von Tumorzellen auf ein Wachstumsmedium und der Bestimmung der Wirkung der Anwesenheit der zu prüfenden Verbindung auf die Tumorzellen-Proliferation. Schließlich wurde die antineoplastische Aktivität in vivo in der Weise bestimmt, daß den Mäusen subkutan Tumorzellen injiziert wurden und das Auftreten von Tumorzellenwachstum sowie das Gewicht der wachsenden Tumorzellen in unbehandelten Kontrolltieren und in mit der Pyrazolon-Verbindung behandelten Tieren bestimmt wurden.
3 mg 3-Methyl-1-[2-(2-naphthyloxy)-ethyl]-2-pyrazolin-5-on wurden in 0,6 ml Ethylalkohol gelöst, und die Lösung wurde mit konzentrierter Natronlauge auf einen pH von 9,5 eingestellt.
Syngeneischen C57BL/6J Wirts-Mäusen wurden 1 x 10^5 Lewis-Lungenkarzinom-Zellen (0,2 ml) subkutan in die Achselhöhlenregion injiziert. Nach einem Zeitraum von 24 Stunden wurde die Pyrazolon-Verbindung 21 Tage lang täglich verabreicht. Die Wirkung der Verabreichung von Theophyllin zusammen mit der Pyrazolon-Verbindung wurde ebenfalls untersucht. Während des Zeitraums wurden die Mäuse unter identischen Bedingungen der Temperatur, Lichteinwirkungsdauer, Ernährung etc. gehalten. Die Mäuse wurden 22 Tage nach der Injektion der Tumorzellen getötet und mittels einer Gesamt-Nekropsie auf die Anwesenheit subkutaner Tumoren untersucht. Vorhandene Tumoren wurden entfernt und auf einer Analysenwaage gewogen.

With `CC1=NN(CCOc2ccc3ccccc3c2)C(=O)C1` [3-Methyl-1-[2-(2-naphthyloxy)-ethyl]-2-pyrazolin-5-on], the “DNS-Synthese (3H-Thymidinaufnahme)” value in experiment [1] is recorded as “konzentrationsabhängige Abnahme der DNS-Synthese”. In addition, the results for the “Tumor-Häufigkeit Anzahl” value with Lewis-Lungen-Karzinom (0.01 mg daily s.c. for 21 days from 24 h after 10^5 3LL cells s.c.), in the experiment with Lewis-Lungen-Karzinom (0.02 mg daily s.c. for 21 days) and in the experiment on Lewis-Lungen-Karzinom (0.08 mg daily s.c. for 21 days) were 3/12, 4/12 and 1/12, respectively. Besides, the values for the Tumor-Häufigkeit % with Lewis-Lungen-Karzinom (0.01 mg daily s.c. for 21 days), in the experiment on Lewis-Lungen-Karzinom (0.02 mg daily s.c. for 21 days) and with Lewis-Lungen-Karzinom (0.08 mg daily s.c. for 21 days) were 25%, 33% and 8%, respectively. Further, the “Gewicht” value in the experiment on Lewis-Lungen-Karzinom (0.01 mg daily s.c. for 21 days) amounted to 0.74 ± 0.46 mg; with Lewis-Lungen-Karzinom (0.02 mg daily s.c. for 21 days), 0.49 ± 0.27 mg; in the experiment with Lewis-Lungen-Karzinom (0.08 mg daily s.c. for 21 days), 0.16 mg.
